Laboratory results from a melting point compilation (Tetko et al.; mined from patent text by program, amines drawn as free bases though some values may be those of a salt).

Molecule `Cn1nc(-c2c(Cl)cncc2Cl)nc1Cc1ccncc1` has a melting point of 130 to 132 °C.
`Cc1ccc(S(=O)(=O)N(F)C(C)(C)C)cc1` gave a melting point of 59 to 62.5 °C.
For `O=c1cc(-c2ccoc2)c2ccc(S)cc2o1`, the melting point was 167 to 170 °C.
`CN(C)Cc1cccc(Oc2ccc3c(c2)S(=O)(=O)NC2CCCN32)c1` (stereo not given) gave a melting point of 122 °C.
`O=C1C(=O)c2ccccc2C2=C1SCC1(CCN(CC3CC3)CC1)O2` gave a melting point of 161 to 164 °C.
In the case of `N#Cc1ncn2c(C(F)(F)F)cc(-c3ccncc3)nc12`, the melting point is reported as 254 °C.
`O=Cc1cc(OCCl)c(O)cc1[N+](=O)[O-]` gave a melting point of 160 to 161 °C.
With `C=CCc1c(SC(C)=O)[nH]c(-c2ccc(Cl)cc2)c1-c1ccc(Cl)cc1` the melting point was 131 to 132 °C.
Molecule `CCOC(=O)P(=O)(O)C(=O)OCC` has a melting point of 150 to 155 °C.
For `O=C(CC1CCCCC1)Nc1c(Cl)ccc2nc(CCCNCCCO)ccc12`, the melting point was 159 to 163 °C.
`CCCCn1c(=O)c2c(ncn2CCCCC(C)=O)n(CCCC)c1=O` showed a melting point of 88 °C.
Molecule `CCOCc1nc2c(N)nc3cc(-c4cccc(CO)c4)cnc3c2n1CC(C)(C)NS(C)(=O)=O` has a melting point of 173 to 174 °C.
`CC(C)(N)Cc1nc2ccccc2[nH]1` showed a melting point of 209 to 214 °C.
With `Clc1cn2c(Cl)cnc2cn1` the melting point was 115 to 116 °C.
With `CCOCc1cc(CCCOc2c(C)cc(-c3noc(C(F)(F)F)n3)cc2C)on1` the melting point was 24 to 25 °C.
Work on `CC(C)Cn1nc(-c2ccc(C(F)(F)F)cc2)cc(CO)c1=O` yielded a melting point of 146 °C.
With `COc1ccc(S(=O)(=O)Nc2ccc(CCCC(=O)O)nc2)cc1` the melting point was 129 to 130 °C.
`O=C(Oc1cccc(C(F)(F)F)c1)n1c2c(c(=O)n(C3CCCCO3)c1=O)CCC2` (stereo not given) gave a melting point of 130 °C.
With `N#CC=Cc1ccc(Cl)s1` the melting point was 41 to 43 °C.
In the case of `CON1C(=O)CC2(CCN(C(=O)C3=C(C)NC(C)=C([N+](=O)[O-])C3c3ccccc3C(F)(F)F)CC2)C1=O` (stereo not given), the melting point is reported as 261 to 263 °C.
Molecule `CC(C)(C)OC(=O)N1CCN(CCCC2(C)Cn3cc([N+](=O)[O-])nc3O2)CC1` (stereo not given) has a melting point of 166 to 167 °C.
`CNC1(c2ccc(C#CC(=O)Nc3ccc(-c4ccc(Cl)cc4)cc3)cc2)CC1` gave a melting point of 217 °C.
In the case of `Cc1cc(-n2cnn(Cc3ccc(S(C)(=O)=O)cc3)c2=O)sc1C(=O)NCc1cccnc1`, the melting point is reported as 208 to 210 °C.
`O=C(OCC1OC(n2cc(F)c(=O)[nH]c2=O)CC1OCc1ccccc1)c1ccc2c(c1)OCO2` (stereo not given) showed a melting point of 169 to 171 °C.
Work on `COc1ccccc1-c1cccc(C(c2ccccc2)c2ccccc2)c1O` yielded a melting point of 131 °C.
Molecule `Cn1cc(-c2ccc(Cl)cc2)c(=O)c(-c2cccc(C(F)(F)F)c2)c1` has a melting point of 153 to 155 °C.
`O=C(Nc1cccc(Cl)c1)NC1CC(C2CCCCC2)c2ccccc2NC1=O` (stereo not given) showed a melting point of 222 to 225 °C.
Molecule `COc1cc2c(cc1-c1ccccc1)c1cc(-c3ccccc3)c(OC)cc1n2CCC(C)CCCC(C)C` (stereo not given) has a melting point of 119 °C.
For `Cc1ccc2oc(C(O)[C@H](C)NC(=O)OCc3ccccc3)nc2c1` (stereo not given in full), the melting point was 134 to 135 °C.
For `CCC1(C)COP(=O)(Cc2ccc(N)cc2)OC1` (stereo not given), the melting point was 130 to 131 °C.
Work on `OCc1sccc1C=Cc1csc2ccccc12` yielded a melting point of 114 to 115 °C.
In the case of `COc1ccc(CCNC(C)=O)cc1OC`, the melting point is reported as 99 to 100 °C.
`Cc1ccc(C2=C(C#N)C(c3cccc4nonc34)c3c[nH]nc3N2)s1` (stereo not given) gave a melting point of 192 °C.
With `COCc1nc2c(N)nc3cc(CCC#N)ccc3c2n1CC(C)(C)O` the melting point was 191 to 193 °C.
`O=c1[nH]c2cccnc2c2nc(-c3ccccc3)cn12` gave a melting point of 329 to 330 °C.
`COC(=O)c1cccc2c1N=C(c1ccccc1Cl)CC2=O` gave a melting point of 166 to 168 °C.
`O=S(=O)(Cl)CCCCCc1ccc(OCc2ccccc2)cc1` showed a melting point of 58 to 60 °C.
`O=C(O)CCC(=O)N1CCCc2cc(S(=O)(=O)N3CCN(c4cccc(Cl)c4)CC3)ccc21` gave a melting point of 135 to 136 °C.
Molecule `CC(=O)Nc1nc(NCCSC(C)=O)n[nH]1` has a melting point of 127 to 130 °C.
Work on `O=C(CSCc1ccc(F)cc1)NO` yielded a melting point of 115 to 116 °C.
For `COc1cc(C)nc(NC(=O)NS(=O)(=O)c2cccc3c2OS(=O)(=O)C(C)C3)n1` (stereo not given), the melting point was 215 to 218 °C.
Molecule `CCOC(=O)c1nc(-c2ccc(OCc3ccccc3)cc2)[nH]c1-c1ccc(C)cc1` has a melting point of 168 to 170 °C.
`O=C(c1ccco1)C1C(=O)N(c2nccs2)c2ccccc21` (stereo not given) gave a melting point of 156 to 157 °C.
Work on `Cc1cccc(-c2cncc(Nc3ccc(Cl)cc3)n2)n1` yielded a melting point of 186 to 188 °C.
For `Nc1nccc(Oc2ccc3c(C(=O)Nc4cccc(C(F)(F)F)c4)cnn3c2)n1`, the melting point was 102 to 104 °C.
With `c1ccc(-c2cc3nnc(-c4ccccc4)n3nc2OCc2cn[nH]n2)cc1` the melting point was 208 to 220 °C.
Work on `CC(=O)Nc1ccc([N+](=O)[O-])c2c(Br)ccc(C)c12` yielded a melting point of 216 to 217 °C.
With `CC(NC(=O)OCc1ccccc1)C(=O)NC1C(C(=O)O)OC(n2cnc3c(NC(=O)c4ccccc4)ncnc32)C1O` (stereo not given) the melting point was 154 to 156 °C.
With `CCCCC(CC)COC(=O)C(C#N)=Cc1ccc(NC(C)=O)cc1` (stereo not given) the melting point was 119 °C.
In the case of `CN(C)c1cc2c(cc1-c1ccc3cc(C=C4SC(=S)N(CC(=O)O)C4=O)ccc3c1)C(C)(C)CCC2(C)C`, the melting point is reported as 194 to 196 °C.
Work on `CC(C)Cn1c(CNC(=O)OC(C)(C)C)c(-c2ccccc2)c2cc(CCC(=O)O)ccc2c1=O` yielded a melting point of 182 to 183 °C.
Molecule `CC1CCN(C(=O)[C@H](CCCSc2ccccn2)NS(=O)(=O)c2ccc3ccccc3c2)CC1` has a melting point of 131 to 132 °C.
`O=C1c2c(Cl)cccc2-n2cnc(I)c2[C@@H]2CCCN12` gave a melting point of 298 to 300 °C.
With `Clc1ccc(Cn2c(-c3ccc4c(c3)OCO4)nc3ccccc32)s1` the melting point was 130 to 131 °C.
`CSc1nnc(N2CCN(c3ccc(N4CC(CNC(C)=O)OC4=O)cc3F)CC2)s1` (stereo not given) gave a melting point of 222 to 223 °C.
For `Cc1nc(OCCCC2CO2)cc(-c2ccc(F)cc2)n1` (stereo not given), the melting point was 63 to 64 °C.
Molecule `CC1(C)CC(NC(=O)C(O)c2ccccc2)c2cc(C#N)ccc2O1` (stereo not given) has a melting point of 120 to 121 °C.
Molecule `CCOC(=O)C1=C(C)NC(C)=C(C(=O)OCC)C1c1cc(Cl)ccc1Cl` has a melting point of 166 to 168 °C.
Work on `Cc1ccc2c(c1)c(=O)n1nc(C(=O)O)cc1n2C` yielded a melting point of 269 °C.
Work on `CC(=O)C1Cc2cc(CCN3CCC(c4noc5cc(F)ccc45)CC3)sc2CN1` (stereo not given) yielded a melting point of 170 to 172 °C.
Work on `CC(C)c1nc(CN(C)C(=O)NC(C(=O)NC(Cc2ccccc2)CC(O)C(Cc2ccccc2)NC(=O)OCc2cncs2)C(C)C)cs1` (stereo not given) yielded a melting point of 122 to 123 °C.
`CCNc1nc(C)c(-c2ccnc(Nc3ccc4c(c3)OCO4)n2)s1` showed a melting point of 194 to 195 °C.
With `CCCCCC(=O)Nc1ccc2scc(Cc3ccc(C(=O)O)cc3OC)c2c1` the melting point was 234 to 235 °C.
In the case of `Cn1c2ccc([N+](=O)[O-])cc2c2c3ccccc3c(=O)[nH]c21`, the melting point is reported as > 300 °C.
`CN(C)C(=O)c1ccc([N+](=O)[O-])cc1Cl` showed a melting point of 116 to 117 °C.
`COc1ccc2nc3c([N+](=O)[O-])ccc(Cl)c3c(Cl)c2c1` gave a melting point of 243 to 246 °C.
In the case of `COc1ccnc(N2CCN(Cc3ccc(C(C)(C)NC(C)=O)cc3)CC2)n1`, the melting point is reported as 160 to 162 °C.
`COc1cc(OC)nc(C(C)(C#N)c2cccc(Cl)c2)n1` (stereo not given) showed a melting point of 89 to 93 °C.
`CN(C)C1CCN(c2ccc(NC(=O)n3ccc4cc(Oc5cc(CC(N)=O)ncn5)ccc43)cc2C(F)(F)F)C1` (stereo not given) gave a melting point of 182 to 184 °C.
In the case of `NC(=O)c1[nH]cnc1OC(=O)C(=Cc1ccccc1)c1ccccc1`, the melting point is reported as 208 °C.
